These results are taken from PubChem BioAssay AID248 (DTP/NCI, 2004).

Values joined by “and” are separate entries in the source; they are usually repeats but may differ in a detail not shown here. Identical values can stand only once. Toxic doses and inconclusive results are not listed.

The test has as its system L1210 leukemia ip in BDF1 mice, survival T/C. Nature of the test: NCI In Vivo Anticancer Drug Screen. Data for tumor model L1210 Leukemia (intraperitoneal) in B6D2F1 (BDF1) mice. The settings on record: endpoint: mean survival time, higher = longer survival. An outline of the steps: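 Tumor cells were implanted, animals were treated, and survival was followed. The result divides the treated measurement by the vehicle-control measurement.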

Setting [1] is: dose: 100.0 mg/kg/injection, schedule: Q01DX009 (ip), vehicle: saline with Tween-80.
[2] abbreviates: dose: 200.0 mg/kg/injection, schedule: Q01DX009 (ip), vehicle: saline with Tween-80.
[3] abbreviates: dose: 100.0 mg/kg/injection, schedule: Q01DX001 (ip), vehicle: saline with Tween-80.
The mark [4] stands for this setting: dose: 200.0 mg/kg/injection, schedule: Q01DX001 (ip), vehicle: saline with Tween-80.
Where [5] appears, read: dose: 400.0 mg/kg/injection, schedule: Q01DX001 (ip), vehicle: saline with Tween-80.
Where [6] appears, read: dose: 50.0 mg/kg/injection, schedule: Q01DX009 (ip), vehicle: saline.
The mark [7] stands for this setting: dose: 100.0 mg/kg/injection, schedule: Q01DX009 (ip), vehicle: saline.

For the compound `Cc1nccc2c1[nH]c1cc(N)ccc12.[Cl][Sn][Cl]`, the T/C runs as follows: (dose: 5.0 mg/kg/injection, schedule: Q04DX003 (ip), vehicle: saline with Tween-80) 102 % of control; (dose: 10.0 mg/kg/injection, schedule: Q04DX003 (ip), vehicle: saline with Tween-80) 94 % of control; (dose: 20.0 mg/kg/injection, schedule: Q04DX003 (ip), vehicle: saline with Tween-80) 96 % of control.

Take `Nc1ccc(S(=O)(=O)c2ccc(N)cc2)cc1`: the T/C was 100 % of control (dose: 100.0 mg/kg/injection, schedule: Q01DX001 (ip), vehicle: other); 96 % of control (dose: 100.0 mg/kg/injection, schedule: Q04DX003 (ip), vehicle: Klucel (hydroxypropylcellulose) (HPC)); 97 % of control (dose: 200.0 mg/kg/injection, schedule: Q01DX001 (ip), vehicle: other); 101 % of control (dose: 200.0 mg/kg/injection, schedule: Q04DX003 (ip), vehicle: Klucel (hydroxypropylcellulose) (HPC)); 107 % of control (dose: 400.0 mg/kg/injection, schedule: Q01DX001 (ip), vehicle: other); 101 % of control (dose: 400.0 mg/kg/injection, schedule: Q04DX003 (ip), vehicle: Klucel (hydroxypropylcellulose) (HPC)).

As to `NC(=O)c1c(CC(=O)O)nn(-c2ccccc2)c1N`, the T/C runs as follows: (dose: 50.0 mg/kg/injection, schedule: Q01DX009 (ip), vehicle: Klucel (hydroxypropylcellulose) (HPC)) 94 % of control; (dose: 100.0 mg/kg/injection, schedule: Q01DX009 (ip), vehicle: Klucel (hydroxypropylcellulose) (HPC)) 98 % of control; (dose: 200.0 mg/kg/injection, schedule: Q01DX009 (ip), vehicle: Klucel (hydroxypropylcellulose) (HPC)) 102 % of control.

Turning to `N#C/C(=C/c1ccncc1)C(N)=O`, the T/C by setting is: (dose: 100.0 mg/kg/injection, schedule: Q04DX003 (ip), vehicle: saline with Tween-80) 98 % of control; (dose: 200.0 mg/kg/injection, schedule: Q04DX003 (ip), vehicle: saline with Tween-80) 94 % of control; (dose: 400.0 mg/kg/injection, schedule: Q04DX003 (ip), vehicle: saline with Tween-80) 99 % of control.

Take `C1C2CC3C1C3/C2=N\N=C1/C2CC3C(C2)C13`: the T/C is, setting by setting: (dose: 75.0 mg/kg/injection, schedule: Q01DX001 (ip), vehicle: saline) 101 % of control; (dose: 150.0 mg/kg/injection, schedule: Q01DX001 (ip), vehicle: saline) 89 % of control; (dose: 300.0 mg/kg/injection, schedule: Q01DX001 (ip), vehicle: saline) 98 % of control.

For the compound `CCOC(=O)C(Cc1ccccc1Cl)(Cc1ccccc1Cl)c1ccccc1`, the T/C is, setting by setting: under setting [1], 92 % of control; under setting [2], 90 % of control; (dose: 400.0 mg/kg/injection, schedule: Q01DX009 (ip), vehicle: saline with Tween-80) 90 % of control.

Regarding `N#Cc1cccc(OCCOc2cccc3ccccc23)c1`, the T/C was 96 % of control under setting [3], 94 % of control under setting [4] and 87 % of control under setting [5].

For the compound `Cc1ncc(CCl)n1Cc1ccccc1`, the T/C was 95 % of control and 87 % of control (dose: 6.25 mg/kg/injection, schedule: Q04DX002 (ip), vehicle: saline); 110 % of control (dose: 12.5 mg/kg/injection, schedule: Q04DX002 (ip), vehicle: Klucel (hydroxypropylcellulose) (HPC)); 114 % of control and 90 % of control (dose: 12.5 mg/kg/injection, schedule: Q04DX002 (ip), vehicle: saline); 94 % of control and 104 % of control (dose: 25.0 mg/kg/injection, schedule: Q01DX009 (ip), vehicle: saline); 95 % of control (dose: 25.0 mg/kg/injection, schedule: Q04DX002 (ip), vehicle: Klucel (hydroxypropylcellulose) (HPC)); 96 % of control (dose: 50.0 mg/kg/injection, schedule: Q01DX001 (ip), vehicle: saline). Further, the T/C is, setting by setting: under setting [6], 93 % of control and 119 % of control; (dose: 50.0 mg/kg/injection, schedule: Q04DX002 (ip), vehicle: Klucel (hydroxypropylcellulose) (HPC)) 100 % of control; (dose: 100.0 mg/kg/injection, schedule: Q01DX001 (ip), vehicle: saline) 97 % of control; under setting [7], 89 % of control and 90 % of control; (dose: 100.0 mg/kg/injection, schedule: Q04DX003 (ip), vehicle: saline) 90 % of control; (dose: 200.0 mg/kg/injection, schedule: Q04DX003 (ip), vehicle: saline) 93 % of control.

As for `c1ccc(Pc2ccccc2)cc1`, the T/C by setting is: under setting [3], 103 % of control; under setting [1], 93 % of control; under setting [4], 105 % of control; under setting [2], 98 % of control; under setting [5], 104 % of control.

On to `Cc1ccc(NN=Nc2ccccc2C#N)cc1`, for which the T/C runs as follows: under setting [6], 92 % of control; under setting [7], 92 % of control; (dose: 100.0 mg/kg/injection, schedule: Q04DX003 (ip), vehicle: acetone) 110 % of control; (dose: 200.0 mg/kg/injection, schedule: Q01DX009 (ip), vehicle: saline) 88 % of control; (dose: 200.0 mg/kg/injection, schedule: Q04DX003 (ip), vehicle: acetone) 100 % of control; (dose: 400.0 mg/kg/injection, schedule: Q04DX003 (ip), vehicle: acetone) 103 % of control.

Turning to `COc1cccc2c1C(=O)c1c(O)c3c(c(O)c1C2=O)C[C@@](O)(/C(C)=N\NC(=O)CO)C[C@@H]3OC1CC(N)C(O)C(C)O1` (stereo partly drawn), the T/C runs as follows: (dose: 0.88 mg/kg/injection, schedule: Q04DX003 (ip), vehicle: saline) 119 % of control; (dose: 1.33 mg/kg/injection, schedule: Q04DX003 (ip), vehicle: saline) 124 % of control; (dose: 3.0 mg/kg/injection, schedule: Q04DX003 (ip), vehicle: saline) 120 % of control; (dose: 3.5 mg/kg/injection, schedule: Q01DX009 (ip), vehicle: saline) 122 % of control; (dose: 6.25 mg/kg/injection, schedule: Q01DX009 (ip), vehicle: saline) 105 % of control; (dose: 7.0 mg/kg/injection, schedule: Q01DX009 (ip), vehicle: saline) 123 % of control. Further, the T/C was 116 % of control (dose: 12.5 mg/kg/injection, schedule: Q01DX009 (ip), vehicle: saline); 95 % of control and 99 % of control (dose: 14.0 mg/kg/injection, schedule: Q01DX009 (ip), vehicle: saline); 108 % of control (dose: 14.0 mg/kg/injection, schedule: Q04DX003 (ip), vehicle: saline); 112 % of control (dose: 16.0 mg/kg/injection, schedule: Q04DX003 (ip), vehicle: saline); 102 % of control (dose: 25.0 mg/kg/injection, schedule: Q04DX003 (ip), vehicle: saline); 111 % of control (dose: 32.0 mg/kg/injection, schedule: Q04DX003 (ip), vehicle: saline). For the same compound, the T/C (dose: 50.0 mg/kg/injection, schedule: Q04DX003 (ip), vehicle: saline) is 91 % of control.

For the compound `CC1CN=C(c2ccc(NC(=O)c3ccc(C(=O)Nc4ccc(C5=NCC(C)CN5)cc4)nc3)cc2)NC1` (stereo not drawn), the T/C by setting is: (dose: 2.0 mg/kg/injection, schedule: Q01DX001 (ip), vehicle: water) 97 % of control and 101 % of control; (dose: 4.0 mg/kg/injection, schedule: Q01DX001 (ip), vehicle: water) 101 % of control and 106 % of control; (dose: 4.0 mg/kg/injection, schedule: Q01DX015 (ip), vehicle: water) 250 % of control and 288 % of control; (dose: 6.0 mg/kg/injection, schedule: Q01DX001 (ip), vehicle: water) 106 % of control and 115 % of control.

As for `NC(N)=NCCCC(N)C(=O)NCCCCCCNC(=O)CCC(=O)NCCCCCCNC(=O)C(N)CCCN=C(N)N` (stereo not drawn), the T/C was 94 % of control (dose: 62.5 mg/kg/injection, schedule: Q01DX010 (ip), vehicle: saline); 98 % of control (dose: 125.0 mg/kg/injection, schedule: Q01DX010 (ip), vehicle: saline); 100 % of control (dose: 250.0 mg/kg/injection, schedule: Q01DX010 (ip), vehicle: saline); 113 % of control (dose: 500.0 mg/kg/injection, schedule: Q01DX010 (ip), vehicle: saline).
